Source: ChEMBL document CHEMBL2434938, “Identification of new inhibitors for low molecular weight protein tyrosine phosphatase isoform B” (Bioorg Med Chem Lett, 2013)

What was measured:
[1] = target: Low molecular weight phosphotyrosine protein phosphatase (Homo sapiens) (UniProt P24666); experiment: Competitive inhibition of human GST-tagged LMW-PTP-B expressed in Escherichia coli JM 109 cells using p-nitrophenyl phosphate as substrate after 15 mins by microplate reader analysis
[2] = target: Low molecular weight phosphotyrosine protein phosphatase (Homo sapiens) (UniProt P24666); experiment: Uncompetitive inhibition of human GST-tagged LMW-PTP-B expressed in Escherichia coli JM 109 cells using p-nitrophenyl phosphate as substrate after 15 mins by microplate reader analysis
[3] = target: Low molecular weight phosphotyrosine protein phosphatase (Homo sapiens) (UniProt P24666); experiment: Competitive inhibition of LMW-PTP-B (unknown origin)

Sequence of Low molecular weight phosphotyrosine protein phosphatase (Homo sapiens) (P24666 whole entry, looked up): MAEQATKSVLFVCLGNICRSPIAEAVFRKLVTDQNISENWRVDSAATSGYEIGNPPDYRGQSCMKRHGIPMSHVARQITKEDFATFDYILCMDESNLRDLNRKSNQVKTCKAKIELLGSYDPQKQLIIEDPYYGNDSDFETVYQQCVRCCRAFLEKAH

Structure (SMILES)	Kis [1] [µM]	also measured
O[C@@H]1[C@H](OCc2ccccc2)OC[C@@H](O)[C@H]1O	> 450	–
O=C(O)Cc1ccc(/N=N/c2c(O)c(C(=O)O)cc3ccccc23)cc1	33.5	–
O=C(O)c1ccc(N2CCCCC2)cc1O	> 450	–
O=C(/C=C/c1ccc(O)c(O)c1)OC1[C@@H](O)CC(OC(=O)/C=C/c2ccc(O)c(O)c2)(C(=O)O)C[C@@H]1O (stereo not given in full)	635	–
COc1ccc2nc3cc(Cl)ccc3c(C#N)c2c1	> 450	–
Cc1c2cc(O)c(=O)cc-2oc2cc(O)c(O)cc12	13.5	Kii [2]: 31.7 µM
Nc1nc(SCc2ccccn2)c2ncn([C@@H]3O[C@H](CO)[C@@H](O)[C@H]3O)c2n1	> 450	–
CC(C)c1nc2c(=O)n(C)c(=O)n(C)c2[nH]1	> 450	–
Oc1cc(-c2nn[nH]n2)nc(O)n1	> 450	–
COC(=O)[C@@H]1[C@H](O)[C@H](C)[C@H](O)[C@H](C)/C=C\C=C(/C)C(=O)Nc2c(C)c(OC(C)=O)c3c(c2O)C(=O)C(C)=C2OCOC(=C23)/C(C)=C/[C@@](C)(O)[C@H](O)[C@@H](C)[C@H]1O	93.9	–
O=c1oc2c(cc1O)oc(=O)c1cc(O)c(O)c(O)c12	10.8	–
O=C(O)CCCC[C@@H]1SC[C@@H]2NC(=O)N[C@@H]21	2330	–
Cn1c(=O)c2nc(CNc3ccc(C(=O)O)cc3)[nH]c2n(C)c1=O	1560	–
Nc1nc(N)nc([C@@H]2C=CCCC2)n1	> 450	–
CC[C@@]1(O)C(=O)OCc2c1cc1n(c2=O)Cc2cc3c(NC(=O)CN)cccc3nc2-1	538	–
COc1ccc(C(=O)O)nc1C	2780	–
CCCCSc1cc(C)nc(N)n1	> 450	–
Nc1nc2c[nH]c(N)nc-2n1	31.7	–
Nc1nc(N)c(/N=N/c2ccc(SCC(=O)O)cc2)c(O)n1	730	–
O=C(O)/C=C/C(=O)N1Cc2cc3ccccc3nc2C1	493	–
Cn1c(=O)c2nc(COc3ccc(C(C)(C)C)cc3)[nH]c2n(C)c1=O	> 450	–
Nc1nc(N)c(/N=N/c2ccc(S(N)(=O)=O)cc2)c(O)n1	128	–

Structure (SMILES)	Kis [1] [µM]	also measured
CC1=C[C@H](O)[C@@H](O)[C@]2(C)[C@H]3[C@@]4(O)OC[C@]35[C@H]([C@@H](C)[C@H]4O)[C@@H](O)C(=O)O[C@@H]5C[C@@H]12	> 450	–
O=C(O)CCNC1CCCCC1	3300	–
O=C(O)c1nn(-c2ccccc2-c2nnc(O)nc2O)c(=O)[nH]c1=O	1650	–
O=c1cc(-c2ccc(O)cc2)oc2c(O)c(O)c(O)c(O)c12	18.8	–
O=C(O)C1OCC2(CO1)COC(C(=O)O)OC2 (stereo not given)	> 450	–
Cc1ccc([N+](=O)[O-])cc1NC(=O)Nc1ccc(S(N)(=O)=O)cc1	2230	–
O=Cc1c[nH]c2ncccc12	7190	–
c1ccc(CSc2nc3c[nH]cnc-3n2)cc1	> 450	–
OCC(O)C1OCOC(C(O)CO)C1O (stereo not given)	> 450	–
O=c1c(O)cccc2cc(O)c(O)c(O)c12	10.4	–
O=C(O)c1ccc2c(c1Nc1ccccc1)C(=O)c1ccccc1C2=O	161	–
Cc1cccc(N=C(S)Nc2cccc(C)n2)n1	> 450	–
Cc1ncc(COP(=O)(O)O)c(C=O)c1O	3.73	Kis [3]: 7.6 µM
Nc1o[nH]c(=O)c1C1CCCCC1	> 450	–
O=C1c2ccccc2C(=O)c2[nH]cnc21	–	Kii [2]: 7.97 µM
N=C(N)n1c(N)nc2ccccc2c1=O	1180	–
Cc1cc(C)c2c(SC(C)C)nc(N)nc2n1	925	–
CCO[C@H]1CCc2c(C)nc(N)nc2S1	–	Kii [2]: 122 µM
Cc1cccc(C)c1NC(=O)Nc1ccc(S(N)(=O)=O)cc1	1760	–
C[C@@H]1O[C@@H](Oc2c(-c3cc(O)c(O)c(O)c3)oc3cc(O)cc(O)c3c2=O)[C@H](O)[C@H](O)[C@H]1O	> 126	–
CC(C)(C)c1ccc(OCC(=O)O)cc1	> 450	–
